Assay results taken from ChEMBL document CHEMBL5291721, “A preclinical secondary pharmacology resource illuminates target-adverse drug reaction associations of marketed drugs” (Nat Commun, 2023).

Columns and labels:
Mu-type opioid receptor = Mu-type opioid receptor (Homo sapiens, UniProt P35372)
[1] = biological target: Beta-2 adrenergic receptor (Homo sapiens, UniProt P07550); format: functional, cell-based
Histamine H3 receptor = Histamine H3 receptor (Homo sapiens, UniProt Q9Y5N1)
B2 bradykinin receptor = biological target: T1, B2 bradykinin receptor (Homo sapiens, UniProt P30411)
T1 sequence (P30411 whole entry): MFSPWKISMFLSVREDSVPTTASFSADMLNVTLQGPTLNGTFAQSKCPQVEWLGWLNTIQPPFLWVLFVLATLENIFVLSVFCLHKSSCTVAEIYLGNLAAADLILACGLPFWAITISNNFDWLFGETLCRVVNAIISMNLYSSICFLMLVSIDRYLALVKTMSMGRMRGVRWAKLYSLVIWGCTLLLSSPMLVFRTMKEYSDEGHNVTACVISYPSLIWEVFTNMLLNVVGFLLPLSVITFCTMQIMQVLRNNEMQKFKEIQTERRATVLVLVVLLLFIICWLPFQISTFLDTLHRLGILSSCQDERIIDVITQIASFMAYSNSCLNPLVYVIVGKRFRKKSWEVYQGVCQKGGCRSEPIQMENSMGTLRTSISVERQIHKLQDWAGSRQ

Melanocortin receptor 4 = Melanocortin receptor 4 (Homo sapiens, UniProt P32245)
[2] = biological target: 5-hydroxytryptamine receptor 2B (Homo sapiens, UniProt P41595); format: functional, cell-based
[3] = biological target: T2, Sodium-dependent serotonin transporter (Homo sapiens, UniProt P31645)
[4] = biological target: T3, Muscarinic acetylcholine receptor M2 (Homo sapiens, UniProt P08172)
T3 sequence (P08172 whole entry): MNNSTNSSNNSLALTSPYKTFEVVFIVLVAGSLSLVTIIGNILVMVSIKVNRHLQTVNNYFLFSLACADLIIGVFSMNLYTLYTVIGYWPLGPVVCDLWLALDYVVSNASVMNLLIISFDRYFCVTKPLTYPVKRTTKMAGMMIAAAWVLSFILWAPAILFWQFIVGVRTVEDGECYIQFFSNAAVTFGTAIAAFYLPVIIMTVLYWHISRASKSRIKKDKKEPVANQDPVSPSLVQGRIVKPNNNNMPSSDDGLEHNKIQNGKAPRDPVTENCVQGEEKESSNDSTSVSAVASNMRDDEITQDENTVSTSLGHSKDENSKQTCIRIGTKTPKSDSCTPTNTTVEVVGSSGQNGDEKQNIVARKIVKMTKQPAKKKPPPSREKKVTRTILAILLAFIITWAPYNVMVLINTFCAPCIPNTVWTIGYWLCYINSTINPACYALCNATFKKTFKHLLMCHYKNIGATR

[5] = biological target: Sodium-dependent dopamine transporter (Homo sapiens, UniProt Q01959)
Estrogen receptor = biological target: T4, Estrogen receptor (Homo sapiens, UniProt P03372)
T4 sequence (P03372 whole entry): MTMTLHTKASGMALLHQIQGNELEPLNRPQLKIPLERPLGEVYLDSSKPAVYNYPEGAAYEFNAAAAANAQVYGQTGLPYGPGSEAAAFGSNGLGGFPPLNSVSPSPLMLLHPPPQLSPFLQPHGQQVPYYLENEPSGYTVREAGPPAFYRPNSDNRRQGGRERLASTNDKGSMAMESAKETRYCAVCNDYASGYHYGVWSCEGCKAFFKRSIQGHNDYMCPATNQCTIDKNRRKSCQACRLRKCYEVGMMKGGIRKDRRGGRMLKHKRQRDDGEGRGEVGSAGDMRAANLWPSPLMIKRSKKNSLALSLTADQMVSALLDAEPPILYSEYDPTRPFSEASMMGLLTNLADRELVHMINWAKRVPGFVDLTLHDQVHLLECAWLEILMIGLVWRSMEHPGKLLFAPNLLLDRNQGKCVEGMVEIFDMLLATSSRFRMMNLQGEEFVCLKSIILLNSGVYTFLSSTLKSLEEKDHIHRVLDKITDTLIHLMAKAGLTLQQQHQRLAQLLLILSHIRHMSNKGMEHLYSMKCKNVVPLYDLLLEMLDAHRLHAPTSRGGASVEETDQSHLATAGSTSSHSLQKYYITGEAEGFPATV

[6] = biological target: T2, Sodium-dependent serotonin transporter; remark: listed apart in the source
[7] = biological target: T5, Amine oxidase [flavin-containing] A (Homo sapiens, UniProt P21397); format: functional
T5 sequence (P21397 whole entry): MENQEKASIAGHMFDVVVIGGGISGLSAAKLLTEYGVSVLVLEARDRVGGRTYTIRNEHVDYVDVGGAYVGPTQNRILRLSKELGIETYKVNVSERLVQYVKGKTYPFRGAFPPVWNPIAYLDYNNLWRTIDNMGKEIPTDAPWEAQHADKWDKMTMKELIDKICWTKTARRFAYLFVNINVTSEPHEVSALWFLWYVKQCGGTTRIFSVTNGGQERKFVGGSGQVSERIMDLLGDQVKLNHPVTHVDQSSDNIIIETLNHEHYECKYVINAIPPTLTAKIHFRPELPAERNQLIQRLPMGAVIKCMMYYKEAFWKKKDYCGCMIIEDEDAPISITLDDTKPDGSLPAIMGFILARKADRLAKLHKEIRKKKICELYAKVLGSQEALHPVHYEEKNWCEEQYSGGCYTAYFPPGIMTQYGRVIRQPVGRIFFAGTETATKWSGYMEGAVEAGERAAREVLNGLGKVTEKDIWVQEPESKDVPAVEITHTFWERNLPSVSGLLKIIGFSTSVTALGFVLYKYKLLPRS

Adenosine receptor A3 = biological target: T6, Adenosine receptor A3 (Homo sapiens, UniProt P0DMS8)
T6 sequence (P0DMS8 whole entry): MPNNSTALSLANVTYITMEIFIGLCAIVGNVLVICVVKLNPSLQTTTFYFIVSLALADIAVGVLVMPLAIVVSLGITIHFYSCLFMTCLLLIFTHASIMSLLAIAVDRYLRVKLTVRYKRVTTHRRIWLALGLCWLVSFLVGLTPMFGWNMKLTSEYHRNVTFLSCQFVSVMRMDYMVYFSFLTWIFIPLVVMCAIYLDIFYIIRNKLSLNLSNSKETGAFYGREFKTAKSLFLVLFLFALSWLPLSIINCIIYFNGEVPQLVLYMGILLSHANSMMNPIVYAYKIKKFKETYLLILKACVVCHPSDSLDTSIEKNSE
Further: assay procedure not described here.

Sequence of Sodium-dependent dopamine transporter (Q01959 whole entry): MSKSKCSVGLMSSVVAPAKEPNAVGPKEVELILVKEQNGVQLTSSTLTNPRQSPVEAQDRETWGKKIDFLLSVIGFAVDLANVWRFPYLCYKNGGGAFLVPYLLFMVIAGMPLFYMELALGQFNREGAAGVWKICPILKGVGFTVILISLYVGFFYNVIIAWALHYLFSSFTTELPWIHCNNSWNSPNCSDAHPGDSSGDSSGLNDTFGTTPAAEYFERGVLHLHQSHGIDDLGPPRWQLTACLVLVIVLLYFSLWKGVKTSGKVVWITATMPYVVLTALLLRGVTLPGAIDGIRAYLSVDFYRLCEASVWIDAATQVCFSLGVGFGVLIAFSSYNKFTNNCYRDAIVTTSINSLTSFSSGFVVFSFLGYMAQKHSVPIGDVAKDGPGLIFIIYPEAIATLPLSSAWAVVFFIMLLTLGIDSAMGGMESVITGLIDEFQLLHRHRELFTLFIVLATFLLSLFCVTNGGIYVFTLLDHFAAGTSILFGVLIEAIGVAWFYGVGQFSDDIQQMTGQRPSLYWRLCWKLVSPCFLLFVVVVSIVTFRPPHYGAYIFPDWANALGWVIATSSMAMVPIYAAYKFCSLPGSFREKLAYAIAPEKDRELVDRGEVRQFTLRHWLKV
Sequence of Beta-2 adrenergic receptor (P07550 whole entry): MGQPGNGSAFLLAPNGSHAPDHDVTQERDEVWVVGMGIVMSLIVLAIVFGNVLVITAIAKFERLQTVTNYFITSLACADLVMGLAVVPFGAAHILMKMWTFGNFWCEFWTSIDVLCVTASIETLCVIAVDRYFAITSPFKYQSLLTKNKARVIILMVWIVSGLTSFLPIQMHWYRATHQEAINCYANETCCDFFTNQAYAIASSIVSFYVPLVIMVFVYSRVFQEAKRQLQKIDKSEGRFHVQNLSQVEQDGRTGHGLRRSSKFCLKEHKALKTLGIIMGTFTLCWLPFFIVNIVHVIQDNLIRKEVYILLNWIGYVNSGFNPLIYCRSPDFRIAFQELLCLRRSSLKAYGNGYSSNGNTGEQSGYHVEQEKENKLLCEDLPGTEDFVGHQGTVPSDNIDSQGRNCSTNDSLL
Sequence of Histamine H3 receptor (Q9Y5N1 whole entry): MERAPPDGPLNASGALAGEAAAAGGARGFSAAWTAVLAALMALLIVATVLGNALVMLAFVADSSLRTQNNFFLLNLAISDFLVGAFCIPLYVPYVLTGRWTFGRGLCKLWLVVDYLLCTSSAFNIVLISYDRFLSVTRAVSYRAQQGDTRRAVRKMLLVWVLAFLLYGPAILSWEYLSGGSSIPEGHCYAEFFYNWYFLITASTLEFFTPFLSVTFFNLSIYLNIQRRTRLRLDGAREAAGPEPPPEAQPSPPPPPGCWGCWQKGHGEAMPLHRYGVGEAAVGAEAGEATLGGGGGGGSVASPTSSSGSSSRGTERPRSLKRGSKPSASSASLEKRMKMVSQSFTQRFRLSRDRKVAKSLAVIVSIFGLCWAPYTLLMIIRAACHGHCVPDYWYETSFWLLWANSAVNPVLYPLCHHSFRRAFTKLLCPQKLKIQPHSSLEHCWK
T2 sequence (P31645 whole entry): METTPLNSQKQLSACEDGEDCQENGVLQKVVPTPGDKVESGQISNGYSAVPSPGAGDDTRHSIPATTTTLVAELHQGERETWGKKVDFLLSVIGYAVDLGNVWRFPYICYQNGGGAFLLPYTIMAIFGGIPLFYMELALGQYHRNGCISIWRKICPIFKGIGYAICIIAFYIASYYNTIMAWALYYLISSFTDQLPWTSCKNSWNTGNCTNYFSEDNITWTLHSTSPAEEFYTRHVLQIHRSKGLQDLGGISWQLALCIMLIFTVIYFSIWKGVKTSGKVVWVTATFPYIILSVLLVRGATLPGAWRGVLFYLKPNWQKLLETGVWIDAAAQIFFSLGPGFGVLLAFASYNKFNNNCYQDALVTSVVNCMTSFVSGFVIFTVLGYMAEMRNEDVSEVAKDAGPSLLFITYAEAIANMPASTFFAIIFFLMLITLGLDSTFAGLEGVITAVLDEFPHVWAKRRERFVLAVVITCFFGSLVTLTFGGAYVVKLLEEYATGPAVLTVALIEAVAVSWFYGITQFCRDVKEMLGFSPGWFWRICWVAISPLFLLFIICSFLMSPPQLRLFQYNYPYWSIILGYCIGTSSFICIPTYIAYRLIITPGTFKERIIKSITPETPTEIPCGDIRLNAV
Sequence of 5-hydroxytryptamine receptor 2B (P41595 whole entry): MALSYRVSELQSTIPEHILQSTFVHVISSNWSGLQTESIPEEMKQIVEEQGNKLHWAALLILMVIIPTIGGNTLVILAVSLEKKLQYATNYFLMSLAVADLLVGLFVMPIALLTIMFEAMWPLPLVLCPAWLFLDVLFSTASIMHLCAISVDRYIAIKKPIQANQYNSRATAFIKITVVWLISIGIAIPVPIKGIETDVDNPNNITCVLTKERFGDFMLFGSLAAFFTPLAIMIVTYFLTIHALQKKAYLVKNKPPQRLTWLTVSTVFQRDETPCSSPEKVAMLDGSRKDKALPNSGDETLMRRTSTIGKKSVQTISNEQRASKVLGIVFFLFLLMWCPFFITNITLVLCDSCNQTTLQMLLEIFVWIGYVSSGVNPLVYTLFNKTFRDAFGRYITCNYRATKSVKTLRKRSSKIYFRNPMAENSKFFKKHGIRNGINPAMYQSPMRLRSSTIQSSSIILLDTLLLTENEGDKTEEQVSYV
Sequence of Melanocortin receptor 4 (P32245 whole entry): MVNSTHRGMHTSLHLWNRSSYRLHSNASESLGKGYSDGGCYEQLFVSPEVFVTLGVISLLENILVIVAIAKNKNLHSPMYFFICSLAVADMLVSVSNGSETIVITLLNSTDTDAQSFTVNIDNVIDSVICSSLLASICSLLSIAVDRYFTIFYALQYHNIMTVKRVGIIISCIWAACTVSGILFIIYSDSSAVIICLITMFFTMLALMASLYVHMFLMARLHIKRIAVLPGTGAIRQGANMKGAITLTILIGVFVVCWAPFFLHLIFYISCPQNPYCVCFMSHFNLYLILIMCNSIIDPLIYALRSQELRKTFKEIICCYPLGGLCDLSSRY
Sequence of Mu-type opioid receptor (P35372 whole entry): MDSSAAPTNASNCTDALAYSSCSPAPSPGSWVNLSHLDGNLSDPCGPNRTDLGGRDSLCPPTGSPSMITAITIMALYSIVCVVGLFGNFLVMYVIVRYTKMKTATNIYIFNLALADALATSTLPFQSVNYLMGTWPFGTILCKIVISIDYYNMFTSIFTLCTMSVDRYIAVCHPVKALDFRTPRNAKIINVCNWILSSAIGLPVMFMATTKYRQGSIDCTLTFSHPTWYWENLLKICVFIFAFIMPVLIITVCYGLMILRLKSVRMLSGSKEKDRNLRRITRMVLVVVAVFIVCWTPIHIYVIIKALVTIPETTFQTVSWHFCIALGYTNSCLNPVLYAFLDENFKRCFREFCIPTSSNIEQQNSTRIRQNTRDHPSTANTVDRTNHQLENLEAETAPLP

SMILES | AC50 (Mu-type opioid receptor) [µM] | AC50 [1] [µM] | AC50 (Histamine H3 receptor) [µM] | AC50 (B2 bradykinin receptor) [µM] | AC50 (Melanocortin receptor 4) [µM] | AC50 [2] [µM] | AC50 [3] [µM] | AC50 [4] [µM] | AC50 [5] [µM] | AC50 (Estrogen receptor) [µM] | AC50 [6] [µM] | AC50 [7] [µM] | AC50 (Adenosine receptor A3) [µM]
CCC[C@@H]1C[C@@H](C(=O)N[C@@H]([C@H]2O[C@H](SC)[C@H](O)[C@@H](O)[C@H]2O)[C@H](C)Cl)N(C)C1 [CLINDAMYCIN] | > 30 | > 30 | > 10 | > 30 | > 30 | – | – | – | – | – | – | – | –
OCCN1CCN(CCCN2c3ccccc3C=Cc3ccccc32)CC1 [OPIPRAMOL] | – | > 30 | > 30 | > 30 | – | > 30 | > 30 | 9.58 | 10.9 | > 30 | 11.7 | > 30 | –
CC(C(=O)O)c1ccc(N2CC=CC2)c(Cl)c1 (centres undefined) [PIRPROFEN] | > 30 | > 30 | > 10 | > 30 | > 30 | > 30 | > 10 | > 30 | > 30 | > 30 | > 30 | > 30 | > 30
COC(=O)[C@@H]1CC2=CC(=O)CC[C@]2(C)[C@@]23O[C@@H]2C[C@@]2(C)[C@@H](CC[C@@]24CCC(=O)O4)[C@H]13 [EPLERENONE] | > 30 | > 30 | > 30 | > 30 | > 30 | – | > 30 | – | – | – | – | – | –
O=C(CCCCCCC(=O)Nc1ccccc1)NO [VORINOSTAT] | > 30 | > 30 | > 30 | > 30 | > 30 | – | > 30 | – | – | – | – | – | –
Nc1nc(N)c2nc(-c3ccccc3)c(N)nc2n1 | 17 | > 30 | > 30 | > 30 | > 10 | > 30 | – | > 30 | > 30 | > 30 | – | > 30 | > 30
CC(=O)OCC(=O)[C@@]1(O)CC[C@H]2[C@@H]3CCC4=CC(=O)CC[C@]4(C)[C@H]3C(=O)C[C@@]21C [CORTISONE ACETATE] | – | > 30 | – | – | – | > 30 | – | – | – | > 30 | – | – | –
Oc1ncnc2[nH]ncc12 [ALLOPURINOL] | > 30 | > 30 | > 30 | > 30 | > 30 | > 30 | – | > 30 | > 30 | > 30 | – | > 30 | > 30
C[C@H]1O[C@H](O[C@H]2[C@H](O)[C@@H](O)[C@@H](O[C@H]3[C@H](O)[C@@H](O)C(O)O[C@@H]3CO)O[C@@H]2CO)[C@H](O)[C@@H](O)[C@@H]1N[C@H]1C=C(CO)[C@@H](O)[C@H](O)[C@H]1O (some centres undefined) [ACARBOSE] | > 10 | > 30 | > 30 | > 30 | > 30 | > 30 | – | > 30 | > 30 | – | – | > 30 | > 30
COc1cc2c(cc1OC)C(=O)C(CC1CCN(Cc3ccccc3)CC1)C2 (centres undefined) [DONEPEZIL] | > 30 | > 30 | 2.5 | > 30 | > 30 | – | > 30 | – | 9.78 | > 30 | > 30 | – | > 30
O=C(NC[C@H]1CN(c2ccc(N3CCOCC3=O)cc2)C(=O)O1)c1ccc(Cl)s1 [RIVAROXABAN] | > 30 | > 30 | – | – | – | > 30 | > 30 | > 30 | > 30 | > 30 | > 30 | > 30 | –
